Measurements reported in US8829190B2, “Triazolopyridines as phosphodiesterase inhibitors for treatment of dermal diseases” (Leo Pharma A/S, priority 2007, dated 2014).

Assays:
Human recombinant PDE4 = Human recombinant PDE4 (Homo sapiens (Human), UniProt Q08499); test: PDE4 assay (SPA, cAMP cleavage); type: biochemical; settings: human recombinant PDE4, 1 hour incubation, cAMP 1×10^-5M
Description: At the end of the incubation, the cleavage of the substrate was evaluated by the binding of the AMP product to SPA beads, which generate chemo luminescence when bound to the radioactive tracer. The AMP product inhibited the binding of the radioactive tracer to the beads, and the luminescent signal was competed.

[1] = system: Human peripheral blood mononuclear cells (PBMC); test: TNFα release in LPS-stimulated PBMC; type: cell-based; settings: 30 minutes pre-incubation, lipopolysaccharide stimulation 18 hours, read-out: TNFa IC50
Description: Human peripheral blood mononuclear cells (PBMC) were isolated from buffy coats. […] The PBMC were suspended in RPMI1640 with 2% foetal calf serum (FCS), pen/strep and 2 mM L-glutamine at a concentration of 5×105 c/ml. The cells were pre-incubated for 30 minutes with the test compounds in 96 well tissue culture plates and stimulated for 18 hours with lipopolysaccharide […] (Sigma). The level of TNFα was measured in the culture supernatant by enzyme immuno assays using primary and secondary biotinylated antibodies from R&D systems.

Sequence of Human recombinant PDE4 (Q08499 other isoform, or with tags, fused parts or gaps): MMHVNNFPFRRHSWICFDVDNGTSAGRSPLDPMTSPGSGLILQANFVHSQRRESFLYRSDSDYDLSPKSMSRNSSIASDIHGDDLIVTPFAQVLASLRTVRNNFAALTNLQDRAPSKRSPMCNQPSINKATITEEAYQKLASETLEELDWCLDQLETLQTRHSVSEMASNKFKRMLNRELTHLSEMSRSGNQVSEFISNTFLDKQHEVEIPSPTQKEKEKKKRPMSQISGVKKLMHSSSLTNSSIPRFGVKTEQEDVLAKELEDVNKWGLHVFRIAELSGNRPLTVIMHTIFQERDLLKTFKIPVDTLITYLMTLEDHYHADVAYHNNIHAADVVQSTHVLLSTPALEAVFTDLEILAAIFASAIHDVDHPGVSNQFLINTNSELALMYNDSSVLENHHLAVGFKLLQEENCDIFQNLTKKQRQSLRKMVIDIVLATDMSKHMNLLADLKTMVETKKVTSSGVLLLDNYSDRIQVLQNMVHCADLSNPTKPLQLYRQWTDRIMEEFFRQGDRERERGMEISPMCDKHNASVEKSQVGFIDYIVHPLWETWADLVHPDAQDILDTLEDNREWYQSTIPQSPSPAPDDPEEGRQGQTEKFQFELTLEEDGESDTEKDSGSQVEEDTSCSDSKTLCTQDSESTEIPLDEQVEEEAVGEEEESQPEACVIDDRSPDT

In the case of `COc1ccc(C(=O)Cc2c(Cl)cncc2Cl)n2nc(C3CC3)nc12` [Compound 101, 1-(2-cyclopropyl-8-methoxy-[1,2,4]triazolo[1,5-a]pyridin-5-yl)-2-(3,5-dichloro-pyridin-4-yl)-ethanone], the IC50 (Human recombinant PDE4) is reported as 0.002 µM and the IC50 [1] is reported as 0.003 µM.
`COc1ccc(C(=O)Cc2c(Cl)cncc2Cl)n2ncnc12` [Compound 102, 2-(3,5-Dichloro-pyridin-4-yl)-1-(8-methoxy-[1,2,4]triazolo[1,5-a]pyridin-5-yl)-ethanone] was tested, and the IC50 (Human recombinant PDE4) was 0.134 µM and the IC50 [1] was 0.291 µM.
`COc1ccc(C(=O)Cc2c(Cl)cncc2Cl)n2nc(-c3ccco3)nc12` [Compound 103, 2-(3,5-Dichloro-pyridin-4-yl)-1-(2-furan-2-yl-8-methoxy-[1,2,4]triazolo[1,5-a]pyridin-5-yl)-ethanone] showed an IC50 (Human recombinant PDE4) of 0.007 µM and an IC50 [1] of 0.027 µM.
Work on `COc1ccc(C(=O)Cc2c(Cl)cncc2Cl)n2nc(COCc3ccccc3)nc12` [Compound 104, 1-(2-Benzyloxymethyl-8-methoxy-[1,2,4]triazolo[1,5-a]pyridin-5-yl)-2-(3,5-dichloro-pyridin-4-yl)-ethanone] yielded an IC50 (Human recombinant PDE4) of 0.026 µM and an IC50 [1] of 0.066 µM.
`COc1ccc(C(=O)Cc2c(Cl)cncc2Cl)n2nc(CO)nc12` [Compound 105, 2-(3,5-Dichloro-pyridin-4-yl)-1-(2-hydroxymethyl-8-methoxy-[1,2,4]triazolo[1,5-a]pyridin-5-yl)-ethanone] showed an IC50 (Human recombinant PDE4) of 0.305 µM and an IC50 [1] of 0.603 µM.
`COc1ccc(C(=O)Cc2c(Cl)cncc2Cl)n2nc(C3(CO)CC3)nc12` [Compound 106, 2-(3,5-Dichloro-pyridin-4-yl)-1-[2-(1-hydroxymethyl-cyclopropyl)-8-methoxy-[1,2,4]triazolo[1,5-a]pyridin-5-yl]-ethanone] showed an IC50 (Human recombinant PDE4) of 0.004 µM and an IC50 [1] of 0.005 µM.
With `COc1ccc(C(=O)Cc2c(Cl)cncc2Cl)n2nc(C)nc12` [Compound 107, 2-(3,5-Dichloro-pyridin-4-yl)-1-(8-methoxy-2-methyl-[1,2,4]triazolo[1,5-a]pyridin-5-yl)-ethanone] the IC50 (Human recombinant PDE4) was 0.045 µM and the IC50 [1] was 0.117 µM.
Molecule `COc1ccc(C(=O)Cc2c(Cl)cncc2Cl)n2nc(C3(C(=O)O)CC3)nc12` [Compound 108, 1-{5-[2-(3,5-Dichloro-pyridin-4-yl)-acetyl]-8-methoxy-[1,2,4]triazolo[1,5-a]pyridin-2-yl}-cyclopropanecarboxylic acid] has an IC50 (Human recombinant PDE4) of 0.055 µM.
`COc1ccc(C(=O)Cc2c(Cl)cncc2Cl)n2nc(C3(C(=O)N4CCOCC4)CC3)nc12` [Compound 109, 2-(3,5-Dichloro-pyridin-4-yl)-1-{8-methoxy-2-[1-(morpholine-4-carbonyl)-cyclopropyl]-[1,2,4]triazolo[1,5-a]pyridin-5-yl}-ethanone] gave an IC50 (Human recombinant PDE4) of 0.024 µM and an IC50 [1] of 0.029 µM.
`COc1ccc(C(=O)Cc2c(Cl)cncc2Cl)n2nc(C3(C(=O)NCc4ccccc4)CC3)nc12` [Compound 110, 1-{5-[2-(3,5-Dichloro-pyridin-4-yl)-acetyl]-8-methoxy-[1,2,4]triazolo[1,5-a]pyridin-2-yl}-cyclopropanecarboxylic acid benzylamide] showed an IC50 (Human recombinant PDE4) of 0.0005 µM and an IC50 [1] of 0.0007 µM.
With `COc1ccc(C(=O)Cc2c(Cl)cncc2Cl)n2nc(C3(C(=O)NCc4ccccn4)CC3)nc12` [Compound 112, 1-{5-[2-(3,5-Dichloro-pyridin-4-yl)-acetyl]-8-methoxy-[1,2,4]triazolo[1,5-a]pyridin-2-yl}-cyclopropanecarboxylic acid (pyridin-2-ylmethyl)-amide] the IC50 (Human recombinant PDE4) was 0.001 µM and the IC50 [1] was 0.0006 µM.
`COc1ccc(C(=O)Cc2c(Cl)cncc2Cl)n2nc(C3(C(=O)NCc4cccnc4)CC3)nc12` [Compound 113, 1-{5-[2-(3,5-Dichloro-pyridin-4-yl)-acetyl]-8-methoxy-[1,2,4]triazolo[1,5-a]pyridin-2-yl}-cyclopropanecarboxylic acid (pyridin-3-ylmethyl)-amide] showed an IC50 (Human recombinant PDE4) of 0.0007 µM and an IC50 [1] of 0.0005 µM.
`COc1ccc(C(=O)Cc2c(Cl)cncc2Cl)n2nc(C3(C(=O)NCc4ccncc4)CC3)nc12` [Compound 114, 1-{5-[2-(3,5-Dichloro-pyridin-4-yl)-acetyl]-8-methoxy-[1,2,4]triazolo[1,5-a]pyridin-2-yl}-cyclopropanecarboxylic acid (pyridin-4-ylmethyl)-amide] showed an IC50 (Human recombinant PDE4) of 0.0004 µM and an IC50 [1] of 0.0002 µM.
Work on `COc1ccc(C(=O)Cc2c(Cl)cncc2Cl)n2nc(C3(C(=O)NCC(C)(C)C)CC3)nc12` [Compound 115, 1-{5-[2-(3,5-Dichloro-pyridin-4-yl)-acetyl]-8-methoxy-[1,2,4]triazolo[1,5-a]pyridin-2-yl}-cyclopropanecarboxylic acid (2,2-dimethyl-propyl)-amide] yielded an IC50 (Human recombinant PDE4) of 0.0002 µM.
In the case of `COc1ccc(C(=O)Cc2c(Cl)cncc2Cl)n2nc(C3(C(=O)NC4CCCC4)CC3)nc12` [Compound 116, 1-{5-[2-(3,5-Dichloro-pyridin-4-yl)-acetyl]-8-methoxy-[1,2,4]triazolo[1,5-a]pyridin-2-yl}-cyclopropanecarboxylic acid cyclopentylamide], the IC50 (Human recombinant PDE4) is reported as 0.0001 µM.
With `COc1ccc(C(=O)Cc2c(Cl)cncc2Cl)n2nc(C3(C(N)=O)CC3)nc12` [Compound 118, 1-{5-[2-(3,5-Dichloro-pyridin-4-yl)-acetyl]-8-methoxy-[1,2,4]triazolo[1,5-a]pyridin-2-yl}-cyclopropanecarboxylic acid amide] the IC50 (Human recombinant PDE4) was 0.003 µM and the IC50 [1] was 0.002 µM.
Molecule `COc1ccc(C(=O)Cc2c(Cl)cncc2Cl)n2nc(C3(CNCc4ccccc4)CC3)nc12` [Compound 119, 1-{2-[1-(Benzylamino-methyl)-cyclopropyl]-8-methoxy-[1,2,4]triazolo[1,5-a]pyridin-5-yl}-2-(3,5-dichloro-pyridin-4-yl)-ethanone] has an IC50 (Human recombinant PDE4) of 0.008 µM and an IC50 [1] of 0.013 µM.
Work on `COc1ccc(C(=O)Cc2cnccn2)n2nc(C3(CO)CC3)nc12` [Compound 120, 1-[2-(1-Hydroxymethyl-cyclopropyl)-8-methoxy-[1,2,4]triazolo[1,5-a]pyridin-5-yl]-2-pyrazin-2-yl-ethanone] yielded an IC50 (Human recombinant PDE4) of 2.5 µM and an IC50 [1] of 2.2 µM.
Molecule `COc1ccc(C(=O)Cc2ccnc3ccccc23)n2nc(C3(CO)CC3)nc12` [Compound 121, 1-[2-(1-Hydroxymethyl-cyclopropyl)-8-methoxy-[1,2,4]triazolo[1,5-a]pyridin-5-yl]-2-quinolin-4-yl-ethanone] has an IC50 (Human recombinant PDE4) of 3.6 µM and an IC50 [1] of 2.1 µM.
For `COc1ccc(C(=O)Cc2ccncc2)n2nc(C3(CO)CC3)nc12` [Compound 122, 1-[2-(1-Hydroxymethyl-cyclopropyl)-8-methoxy-[1,2,4]triazolo[1,5-a]pyridin-5-yl]-2-pyridin-4-yl-ethanone], the IC50 (Human recombinant PDE4) was 0.261 µM and the IC50 [1] was 0.139 µM.
Work on `COc1ccc(C(=O)Cc2c(Br)cncc2Br)n2nc(C3(CO)CC3)nc12` [Compound 123, 2-(3,5-Dibromo-pyridin-4-yl)-1-[2-(1-hydroxymethyl-cyclopropyl)-8-methoxy-[1,2,4]triazolo[1,5-a]pyridin-5-yl]-ethanone] yielded an IC50 (Human recombinant PDE4) of 0.068 µM and an IC50 [1] of 0.015 µM.
`COc1ccc(C(=O)Cc2ccncc2Br)n2nc(C3(CO)CC3)nc12` [Compound 124, 2-(3-Bromo-pyridin-4-yl)-1-[2-(1-hydroxymethyl-cyclopropyl)-8-methoxy-[1,2,4]triazolo[1,5-a]pyridin-5-yl]-ethanone] gave an IC50 (Human recombinant PDE4) of 0.052 µM and an IC50 [1] of 0.115 µM.
`COc1ccc(C(=O)Cc2ccnc(C#N)c2)n2nc(C3(CO)CC3)nc12` [Compound 125, 4-{2-[2-(1-Hydroxymethyl-cyclopropyl)-8-methoxy-[1,2,4]triazolo[1,5-a]pyridin-5-yl]-2-oxo-ethyl}-pyridine-2-carbonitrile] gave an IC50 (Human recombinant PDE4) of 3.1 µM and an IC50 [1] of 4.8 µM.
Work on `COc1ccc(C(=O)Cc2nccnc2Cl)n2nc(C3(CO)CC3)nc12` [Compound 126, 2-(3-Chloro-pyrazin-2-yl)-1-[2-(1-hydroxymethyl-cyclopropyl)-8-methoxy-[1,2,4]triazolo[1,5-a]pyridin-5-yl]-ethanone] yielded an IC50 (Human recombinant PDE4) of 0.548 µM and an IC50 [1] of 0.712 µM.
`COc1ccc(C(=O)Cc2ccccc2Cl)n2nc(C3CC3)nc12` [Compound 127, 2-(2-Chloro-phenyl)-1-(2-cyclopropyl-8-methoxy-[1,2,4]triazolo[1,5-a]pyridin-5-yl)-ethanone] showed an IC50 [1] of 0.105 µM.
`COc1ccc(C(=O)Cc2c(Cl)c[n+]([O-])cc2Cl)n2nc(C3CC3)nc12` [Compound 128, 1-(2-Cyclopropyl-8-methoxy-[1,2,4]triazolo[1,5-a]pyridin-5-yl)-2-(3,5-dichloro-1-oxy-pyridin-4-yl)-ethanone] was tested, and the IC50 [1] was 0.005 µM.
